Measured values taken from patent US5391552A, “Diphenylpiperazine derivative and drug for circulatory organ containing the same” (Pola Chemical Industries, Inc., priority 1990, dated 1995).

Tests used:
[1] = system: calcium; test: Antagonism against calcium: inhibition of KCl-induced contraction of rat aorta ring specimens (Magnus tube, Test Example 1); set-up: species or system Male Wistar rats; settings: inhibits 50% of the maximum contraction by KCl (10-60 mM); rat aorta rings, 37 °C; read-out: 50% inhibitory concentration
Protocol: Male Wistar rats (300-350g) were exsanguinated to death and submitted to thoracotomy to take off aortae. Ring specimens having a width of 3 to 4 mm were prepared from the aortae. The specimen was suspended in a Magnus tube which was filled with Krebs Henseleit liquid of 37°±0.5° C., aerated with a mixing gas (95% of O2 and 5% of CO2) flowing in the liquid. A load of approximately 2 g was given to the specimen, and a tension variation was isometrically recorded.

[2] = system: vertebral artery; test: Variation of vertebral artery blood flow amount in anesthetized dogs (Test Example 2); type: in vivo, crossbred adult dogs; settings: i.v.
Protocol: After female and male crossbred adult dogs were put under anesthesia by using pentobarbital-Na, a cannula for blood pressure measuring and a cannula for drug dosing were set to the femoral artery and the femoral vein, respectively. The blood flow was measured using a probe fixed to the vertebral artery.

| SMILES | IC50 [1] [nM] | further results |
| --- | --- | --- |
| OC(CNCCc1ccccc1)CN1CCN(C(c2ccccc2)c2ccccc2)CC1 (stereo not drawn) [Compound 3, 1-Diphenylmethyl-4-[2-hydroxy-3-(2-phenylethylamino)propyl]piperazine] | 1300 | – |
| COc1ccccc1CCNCC(O)CN1CCN(C(c2ccccc2)c2ccccc2)CC1 (stereo not drawn) [Compound 4, 1-Diphenylmethyl-4-[2-hydroxy-3-{2-(2-methoxyphenyl)ethylamino}propyl]piperazine] | 1300 | – |
| COc1ccc(CCNCC(O)CN2CCN(C(c3ccccc3)c3ccccc3)CC2)cc1OC (stereo not drawn) [Compound 5, 1-[3-{2-(3,4-Dimethoxyphenyl)ethylamino}-2-hydroxypropyl]-4-diphenylmethylpiperazine] | 1200 | – |
| OC(CNc1ccccc1)CN1CCN(CCCC(c2ccc(F)cc2)c2ccc(F)cc2)CC1 (stereo not drawn) [Compound 6, 1-[4,4-Bis(4-fluorophenyl)butyl]-4-(2-hydroxy-3-phenylaminopropyl)piperazine] | 220 | – |
| OC(CSc1ccccc1)CN1CCN(CCCC(c2ccc(F)cc2)c2ccc(F)cc2)CC1 (stereo not drawn) [Compound 10, 1-[4,4-Bis(4-fluorophenyl)butyl]-4-(2-hydroxy-3-phenylthiopropyl)piperazine.2HCl] | 160 | Variation of the blood flow amount ([2]; 10 μg/kg): 18%; Variation of the blood flow amount ([2]; 30 μg/kg): 14%; Variation of the blood flow amount ([2]; 100 μg/kg): 80%; Variation of the blood flow amount ([2]; 300 μg/kg): 125% |
| COC(CSc1ccccc1)CN1CCN(CCCC(c2ccc(F)cc2)c2ccc(F)cc2)CC1 (stereo not drawn) [Compound 12, 1-[4,4-Bis(4-fluorophenyl)butyl]-4-(2-methoxy-3-phenylthiopropyl)piperazine.2HCl] | 200 | – |
| CC(=O)OC(CSc1ccccc1)CN1CCN(CCCC(c2ccc(F)cc2)c2ccc(F)cc2)CC1 (stereo not drawn) [Compound 14, 1-(2-Acetoxy-3-phenylthiopropyl)-4-[4,4-bis(4-fluorophenyl)butyl]piperazine.2HCl] | 280 | – |
| O[C@H](CSc1ccccc1)CN1CCN(CCCC(c2ccc(F)cc2)c2ccc(F)cc2)CC1 [Compound 16, (S)-(-)-1-[4,4-Bis(4-fluorophenyl)butyl]-4-(2-hydroxy-3-phenylthiopropyl)piperazine] | 100 | – |
| O[C@@H](CSc1ccccc1)CN1CCN(CCCC(c2ccc(F)cc2)c2ccc(F)cc2)CC1 [Compound 18, (R)-(+)-1-[4,4-Bis(4-fluorophenyl)butyl]-4-(2-hydroxy-3-phenylthiopropyl)piperazine] | 130 | – |
| Cc1ccc(SCC(O)CN2CCN(CCCC(c3ccc(F)cc3)c3ccc(F)cc3)CC2)cc1 (stereo not drawn) [Compound 20, 1-[4,4-Bis(4-fluorophenyl)butyl]-4-[2-hydroxy-3-(4methylphenylthio)propyl]piperazine] | 270 | – |
| Nc1ccc(SCC(O)CN2CCN(CCCC(c3ccc(F)cc3)c3ccc(F)cc3)CC2)cc1 (stereo not drawn) [Compound 22, 1-[(4-Aminophenylthio)-2-hydroxypropyl]-4-[4,4bis(4-fluorophenyl)butyl]piperazine] | 630 | – |
| OC(CSCc1ccccc1)CN1CCN(C(c2ccc(F)cc2)c2ccc(F)cc2)CC1 (stereo not drawn) [Compound 24, 1-[Bis(4-fluorophenyl)methyl]-4-(2-hydroxy-3-phenylmethylthiopropyl)piperazine] | 1400 | – |
| OC(CSCc1ccccc1)CN1CCN(CCCC(c2ccc(F)cc2)c2ccc(F)cc2)CC1 (stereo not drawn) [Compound 28, 1-[4,4-Bis(4-fluorophenyl)butyl]-4-(2-hydroxy-3-phenylmethylthiopropyl)piperazine] | 110 | – |
| OC(CSc1ccc(Cl)cc1)CN1CCN(CCCC(c2ccc(F)cc2)c2ccc(F)cc2)CC1 (stereo not drawn) [Compound 31, 1-[4,4-Bis(4-fluorophenyl)butyl]-4-[3-(4-chlorophenylthio)-2-hydroxyproply]piperazine] | 1100 | – |
| COc1ccccc1SCC(O)CN1CCN(CCCC(c2ccc(F)cc2)c2ccc(F)cc2)CC1 (stereo not drawn) [Compound 35, 1-[4,4-Bis(4-fluorophenyl)butyl]-4-[2-hydroxy-3-(2-methoxyphenylthio)propyl]piperazine] | 160 | Variation of the blood flow amount ([2]; 10 μg/kg): 13%; Variation of the blood flow amount ([2]; 30 μg/kg): 26%; Variation of the blood flow amount ([2]; 100 μg/kg): 66%; Variation of the blood flow amount ([2]; 300 μg/kg): 87% |
| OC(CSc1ccc(F)cc1)CN1CCN(CCCC(c2ccc(F)cc2)c2ccc(F)cc2)CC1 (stereo not drawn) [Compound 37, 1-[4,4-Bis(4-fluorophenyl)butyl]-4-[3-(4-fluorophenylthio)-2-hydroxypropyl]piperazine] | 140 | – |
| Oc1ccc(SCC(O)CN2CCN(CCCC(c3ccc(F)cc3)c3ccc(F)cc3)CC2)cc1 (stereo not drawn) [Compound 39, 1-[4,4-Bis(4-fluorophenyl)butyl]-4-[2-hydroxy-3-(4-hydroxyphenylthio)propyl]piperazine] | 340 | – |
| COc1ccc(SCC(O)CN2CCN(CCCC(c3ccc(F)cc3)c3ccc(F)cc3)CC2)cc1 (stereo not drawn) [Compound 41, 1-[4,4-Bis(4-fluorophenyl)butyl]-4-[2-hydroxy-3-(4-methoxyphenylthio)propyl]piperazine] | 430 | Variation of the blood flow amount ([2]; 10 μg/kg): 12%; Variation of the blood flow amount ([2]; 30 μg/kg): 25%; Variation of the blood flow amount ([2]; 100 μg/kg): 66%; Variation of the blood flow amount ([2]; 300 μg/kg): 87% |
| COc1cccc(SCC(O)CN2CCN(CCCC(c3ccc(F)cc3)c3ccc(F)cc3)CC2)c1 (stereo not drawn) [Compound 43, 1-[4,4-Bis(4-fluorophenyl)butyl]-4-[2-hydroxy-3-(3-methoxyphenylthio)propyl]piperazine] | 280 | Variation of the blood flow amount ([2]; 10 μg/kg): 7%; Variation of the blood flow amount ([2]; 30 μg/kg): 15%; Variation of the blood flow amount ([2]; 100 μg/kg): 55%; Variation of the blood flow amount ([2]; 300 μg/kg): 131% |
| COc1ccccc1SCC(O)CN1CCN(C(c2ccc(F)cc2)c2ccc(F)cc2)CC1 (stereo not drawn) [Compound 45, 1-[Bis(4-fluorophenyl)methyl]-4-[2-hydroxy-3-(2methoxyphenylthio)propyl]piperazine] | 1100 | – |
| OC(CSc1ccccc1)CN1CCN(CC(c2ccccc2)c2ccccc2)CC1 (stereo not drawn) [Compound 47, 1-(2,2-Diphenylethyl)-4-(2-hydroxy-3-phenylthiopropyl)piperazine] | 690 | – |
| OC(CSc1ccccc1)CN1CCN(CCCC(c2ccccc2)c2ccccc2)CC1 (stereo not drawn) [Compound 51, 1-(4,4-Diphenylbutyl)-4-(2-hydroxy-3-phenylthiopropyl)piperazine] | 140 | – |
| OC(CSc1ccccc1)CN1CCN(C(c2ccc(F)cc2)c2ccc(F)cc2)CC1 (stereo not drawn) [Compound 53, 1-[Bis(4-fluorophenyl)methyl]-4-(2-hydroxy-3-phenylthiopropyl)piperazine] | 1200 | – |
| COc1ccc(SCC(O)CN2CCN(C(c3ccc(F)cc3)c3ccc(F)cc3)CC2)cc1 (stereo not drawn) [Compound 55, 1-[Bis (4-fluorophenyl)methyl]-4-[2-hydroxy-3-(4-methoxyphenylthio)propyl]piperazine] | 1300 | – |
| OC(CSc1cccc2ccccc12)CN1CCN(CCCC(c2ccc(F)cc2)c2ccc(F)cc2)CC1 (stereo not drawn) [Compound 57, 1-[4,4-Bis(4-fluorophenyl)butyl]-4-[2-hydroxy-3-(1-naphthylthio)propyl]piperazine] | 340 | – |
| Fc1ccc(C(c2ccc(F)cc2)N2CCN(C/C=C/c3ccccc3)CC2)cc1 [Furnarizine, furnarizine, reference compound] | – | Variation of the blood flow amount ([2]; 30 μg/kg): 8%; Variation of the blood flow amount ([2]; 100 μg/kg): 27%; Variation of the blood flow amount ([2]; 300 μg/kg): 44%; Variation of the blood flow amount ([2]; 1000 μg/kg): 55% |
